Assays:
diabetic rabbits [1] = assay: Comparison of Menthi, trigonelline and tolbutamide on glucose tolerance; format: in vivo, rabbit; conditions: 100 mg/kg/day for 3 days
Procedure: The antidiabetic activity of GII (Menthi) and the alkaloid trigonelline, which can be isolated from fenugreek seeds, were compared. Diabetic rabbits were administered the same dose (100 mg/kg/day) daily for 3 days. The activity of these two was also compared with a standard drug tolbutamide all at the same dosage schedule of 100 mg/Kg/day for 3 days.

diabetic rabbits [2] = conditions: cited from earlier work
[3] = reported by Mishinsky; cited from earlier work

| Compound | % Decrease in Blood Glucose Level at 2.5 Hours in GTT (diabetic rabbits [1]) [%] | blood glucose during GTT (diabetic rabbits [2]) | hypoglycemic activity [3] |
| --- | --- | --- | --- |
| CCCCNC(=O)NS(=O)(=O)c1ccc(C)cc1 [Tolbutamide, tolbutamide] | 25 |  |  |
| fenugreekine |  | could not lower blood glucose |  |
| C[n+]1cccc(C(=O)[O-])c1 [Trigonelline, trigonelline] | 16 |  | only mild and transient hypoglycemic activity |

Reference: US7815946B1, “Anti-diabetic and cholesterol lowering preparation from fenugreek seeds” (priority 2001, dated 2010)
